Reference: patent US11957684B2, “Treatment of heavy menstrual bleeding associated with uterine fibroids” (Sumitomo Pharma Switzerland GmbH, priority 2016, dated 2024)

Legend:
FIG. 75 = assay: FIG. 75
Text: Table printed on a drawing sheet, FIG. 75
First reader's note: Each body row is one statistic (N, Mean, SD, quartiles, range) of the plasma concentration for one dose group, so N rows are subject counts and SD rows are errors; the dose group name is printed only on the N row and is repeated here for its group.

FIG. 167 = assay: FIG. 167
Text: Table printed on a drawing sheet, FIG. 167
First reader's note: Units stand in the cells; each column is one drug and the rows are its properties.

[1] = literature (Struthers et al. 2009); cited from earlier work

Text for FIG. 73: First reader's note: Each row is one summary statistic (N, mean, SD, quartiles, range) of the plasma concentration for one dose group; the N rows are subject counts, not ng/mL, and the columns are visit/sampling times.

SMILES	Visit | Week 0: 0.5-[…] (FIG. 73) [ng/mL]	Visit | Week 0: 2-5hr (FIG. 73) [ng/mL]	Visit | Week 2: 2-5hr (FIG. 73) [ng/mL]	Visit | Week 2: Predose (FIG. 73) [ng/mL]	Visit | Week 4: 2-5hr (FIG. 73) [ng/mL]	Visit | Week 4: Predose (FIG. 73) [ng/mL]	Visit | Week 8: 0.5-[…] (FIG. 73) [ng/mL]	Visit | Week 8: 2-5hr (FIG. 73) [ng/mL]	Visit | Week 8: Predose (FIG. 73) [ng/mL]	Visit | Week 12 (FIG. 73) [ng/mL]	Visit | Week 16: Predose (FIG. 73) [ng/mL]	Visit | Week 20: Predose (FIG. 73) [ng/mL]	Visit | Week 24 (FIG. 73) [ng/mL]	Visit | Week 2: Predose (FIG. 75) [ng/mL]	Visit | Week 4: Predose (FIG. 75) [ng/mL]	Visit | Week 12 (FIG. 75) [ng/mL]	Visit | Week 2: 0.5-[…] (FIG. 73) [ng/mL]	Visit | Week 4: 0.5-[…] (FIG. 73) [ng/mL]	Visit | Week 8: Predose (FIG. 75) [ng/mL]	Observed Half-life (FIG. 167) [h]	also measured
CONC(=O)Nc1ccc(-c2sc3c(c2CN(C)C)c(=O)n(-c2ccc(OC)nn2)c(=O)n3Cc2c(F)cccc2F)cc1 [Compound 1 10 mg]	0.5290	0.5641	0.8025	0.3100	0.9672	0.2670	1.324	0.8301	0.3406	0.2783	0.3251	0.3138	0.2811	0.0898	0.1880	0.8620					Visit | Week 2: 0.5-[…] (FIG. 75): 0.9860 ng/mL; Visit | Week 2: 2-5hr (FIG. 75): 0.8280 ng/mL; Visit | Week 4: 0.5-[…] (FIG. 75): 0.9140 ng/mL; Visit | Week 4: 2-5hr (FIG. 75): 0.3720 ng/mL; Visit | Week 8: 0.5-[…] (FIG. 75): 2.192 ng/mL; Visit | Week 8: 2-5hr (FIG. 75): 1.320 ng/mL; Visit | Week 16: Predose (FIG. 75): 0.1500 ng/mL
CONC(=O)Nc1ccc(-c2sc3c(c2CN(C)C)c(=O)n(-c2ccc(OC)nn2)c(=O)n3Cc2c(F)cccc2F)cc1 [Compound 1 20 mg]	2.784	2.154	2.981	0.8002	3.567	0.6640	3.437	2.643	0.8032	0.6904	0.6280	0.7132	0.6712	0.8990	0.3880	0.8320	2.912	3.515	0.3380		Visit | Week 0: 0.5-[…] (FIG. 75): 7.570 ng/mL; Visit | Week 24 (FIG. 75): 0.7470 ng/mL
CONC(=O)Nc1ccc(-c2sc3c(c2CN(C)C)c(=O)n(-c2ccc(OC)nn2)c(=O)n3Cc2c(F)cccc2F)cc1 [Compound 1 40 mg]	7.424	7.680	7.550	2.383	8.479	2.315	10.29	11.20	2.233	1.987	1.995	2.240	1.908			1.520	9.210	11.61	3.580		
COc1cccc(-c2c(C)n(Cc3c(F)cccc3C(F)(F)F)c(=O)n(C[C@H](NCCCC(=O)O)c3ccccc3)c2=O)c1F [Elagolix^2]																				2 to 6	
CONC(=O)Nc1ccc(-c2sc3c(c2CN(C)C)c(=O)n(-c2ccc(OC)nn2)c(=O)n3Cc2c(F)cccc2F)cc1 [Relugolix^1]																				37 to 42	
COc1cccc(-c2c(C)n(Cc3c(F)cccc3C(F)(F)F)c(=O)n(C[C@H](NCCCC(=O)O)c3ccccc3)c2=O)c1F [elagolix]																					half-life [1]: 2.4 to 6.3 h
